Results as given in patent US9845330B2, “6-nitro-2,3-dihydroimidazo[2,1-b]oxazoles and a process for the preparation thereof” (priority 2013, dated 2017).
Values after ≈ are worked out from the molar mass of the structure shown.

Legend:
[1] = tested on: M. tuberculosis MDR (resistant to isoniazid and rifampicin); test: microbe, parasite or virus in culture; assay type: cell-based; conditions: Mycobacterium tuberculosis, 504 h, read-out: MIC M. tb MDR
[2] = tested on: M. tuberculosis XDR (resistant to isoniazid, rifampicin, amikacin and moxifloxacin); test: microbe, parasite or virus in culture; assay type: cell-based; conditions: Mycobacterium tuberculosis, 504 h, read-out: MIC M. tb XDR

Structure (SMILES) | MIC [1] | MIC [2]
C[C@]1(COc2ccc(-c3cc(COc4ccc(F)cc4F)on3)cc2)Cn2cc([N+](=O)[O-])nc2O1 [IC22, (R)-2-{4-[5-(2,4-difluorophenoxymethyl)isoxazol-3-yl]phenoxymethyl}-2,3-dihydro-2-methyl-6-nitroimidazo[2,1-b]oxazole] | 0.12 µg/mL (≈ 0.248 µM) | 0.12 µg/mL (≈ 0.248 µM)
C[C@]1(COc2ccc(NC(=O)Nc3ccc(F)cc3)cc2)Cn2cc([N+](=O)[O-])nc2O1 [IIA1, (R)-1-(4-fluorophenyl)-3-{4-(2-methyl-6-nitro-2,3-dihydroimidazo[2,1-b]oxazol-2-yl)methoxyphenyl}urea] | 2 µg/mL (≈ 4.68 µM) | 2 µg/mL (≈ 4.68 µM)
CCc1ccc(NC(=O)Nc2ccc(OC[C@@]3(C)Cn4cc([N+](=O)[O-])nc4O3)cc2)cc1 [IIA2, (R)-1-(4-ethylphenyl)-3-{4-(2-methyl-6-nitro-2,3-dihydroimidazo[2,1-b]oxazol-2-yl)methoxyphenyl}urea] | 0.5 µg/mL (≈ 1.14 µM) | 0.5 µg/mL (≈ 1.14 µM)
C[C@]1(COc2ccc(NC(=O)Nc3ccc(C(F)(F)F)cc3)cc2)Cn2cc([N+](=O)[O-])nc2O1 [IIA3, (R)-1-(4-trifluoromethylphenyl)-3-{4-(2-methyl-6-nitro-2,3-dihydroimidazo[2,1-b]oxazol-2-yl)methoxyphenyl}urea] | 0.12 µg/mL (≈ 0.251 µM) | 0.12 µg/mL (≈ 0.251 µM)
Cc1ccc(NC(=O)Nc2ccc(OC[C@@]3(C)Cn4cc([N+](=O)[O-])nc4O3)cc2)cc1 [IIA4, (R)-1-(4-methylphenyl)-3-{4-(2-methyl-6-nitro-2,3-dihydroimidazo[2,1-b]oxazol-2-yl)methoxyphenyl}urea] | 0.06 µg/mL (≈ 0.142 µM) | 0.06 µg/mL (≈ 0.142 µM)
COc1ccc(NC(=O)Nc2ccc(OC[C@@]3(C)Cn4cc([N+](=O)[O-])nc4O3)cc2)cc1 [IIA5, (R)-1-(4-methoxyphenyl)-3-{4-(2-methyl-6-nitro-2,3-dihydroimidazo[2,1-b]oxazol-2-yl)methoxyphenyl}urea] | 1 µg/mL (≈ 2.28 µM) | 1 µg/mL (≈ 2.28 µM)
C[C@]1(COc2ccc(NC(=O)Nc3ccc(OC(F)(F)F)cc3)cc2)Cn2cc([N+](=O)[O-])nc2O1 [IIA6, (R)-1-(4-trifluoromethoxyphenyl)-3-{4-(2-methyl-6-nitro-2,3-dihydroimidazo[2,1-b]oxazol-2-yl)methoxyphenyl}urea] | 0.5 µg/mL (≈ 1.01 µM) | 0.5 µg/mL (≈ 1.01 µM)
COc1ccc(NC(=S)Nc2ccc(OC[C@@]3(C)Cn4cc([N+](=O)[O-])nc4O3)cc2)cc1 [IIA7, (R)-1-(4-methoxyphenyl)-3-{4-(2-methyl-6-nitro-2,3-dihydroimidazo[2,1-b]oxazol-2-yl)methoxyphenyl}thiourea] | 2 µg/mL (≈ 4.39 µM) | 2 µg/mL (≈ 4.39 µM)
C[C@]1(COc2ccc(NC(=S)Nc3ccc(OC(F)(F)F)cc3)cc2)Cn2cc([N+](=O)[O-])nc2O1 [IIA8, (R)-1-(4-trifluoromethoxyphenyl)-3-{4-(2-methyl-6-nitro-2,3-dihydroimidazo[2,1-b]oxazol-2-yl)methoxyphenyl}thiourea] | 2 µg/mL (≈ 3.93 µM) | 2 µg/mL (≈ 3.93 µM)
C[C@]1(COc2ccc(NC(=S)Nc3ccc(F)cc3)cc2)Cn2cc([N+](=O)[O-])nc2O1 [IIA9, (R)-1-(4-fluorophenyl)-3-{4-(2-methyl-6-nitro-2,3-dihydroimidazo[2,1-b]oxazol-2-yl)methoxyphenyl}thiourea] | 4 µg/mL (≈ 9.02 µM) | 4 µg/mL (≈ 9.02 µM)
C[C@]1(COc2ccc(NC(=S)Nc3ccc(C(F)(F)F)cc3)cc2)Cn2cc([N+](=O)[O-])nc2O1 [IIA10, (R)-1-(4-trifluoromethylphenyl)-3-{4-(2-methyl-6-nitro-2,3-dihydroimidazo[2,1-b]oxazol-2-yl)methoxyphenyl}thiourea] | 4 µg/mL (≈ 8.11 µM) | 4 µg/mL (≈ 8.11 µM)
Cc1ccc(NS(=O)(=O)c2ccc(OC[C@@]3(C)Cn4cc([N+](=O)[O-])nc4O3)cc2)cc1 [IIB1, (R)-4-{(2-methyl-6-nitro-2,3-dihydroimidazo[2,1-b]oxazol-2-yl)methoxy}-N-(p-tolyl)benzenesulfonamide] | 2 µg/mL (≈ 4.5 µM) | 2 µg/mL (≈ 4.5 µM)
C[C@]1(COc2ccc(S(=O)(=O)Nc3ccc(OC(F)(F)F)cc3)cc2)Cn2cc([N+](=O)[O-])nc2O1 [IIB2, (R)-4-{(2-methyl-6-nitro-2,3-dihydroimidazo[2,1-b]oxazol-2-yl)methoxy}-N-(4 trifluoromethoxyphenyl)benzenesulfonamide] | 2 µg/mL (≈ 3.89 µM) | 2 µg/mL (≈ 3.89 µM)
C[C@]1(COc2ccc(S(=O)(=O)Nc3ccc(C(F)(F)F)cc3)cc2)Cn2cc([N+](=O)[O-])nc2O1 [IIB3, (R)-4-{(2-methyl-6-nitro-2,3-dihydroimidazo[2,1-b]oxazol-2-yl)methoxy}-N-(4 trifluoromethylphenyl)benzenesulfonamide] | 2 µg/mL (≈ 4.01 µM) | 2 µg/mL (≈ 4.01 µM)
CN(c1ccccc1)S(=O)(=O)c1ccc(OC[C@@]2(C)Cn3cc([N+](=O)[O-])nc3O2)cc1 [IIB4, (R)—N-methyl-4-{(2-methyl-6-nitro-2,3-dihydroimidazo[2,1-b]oxazol-2-yl)methoxy}-N-phenylbenzenesulfonamide] | 4 µg/mL (≈ 9 µM) | 4 µg/mL (≈ 9 µM)
Cc1ccc(N(C)S(=O)(=O)c2ccc(OC[C@@]3(C)Cn4cc([N+](=O)[O-])nc4O3)cc2)cc1 [IIB5, (R)—N-methyl-4-{(2-methyl-6-nitro-2,3-dihydroimidazo[2,1-b]oxazol-2-yl)methoxy}-N-(p-tolyl)benzenesulfonamide] | 4 µg/mL (≈ 8.72 µM) | 4 µg/mL (≈ 8.72 µM)
CN(c1ccc(C(F)(F)F)cc1)S(=O)(=O)c1ccc(OC[C@@]2(C)Cn3cc([N+](=O)[O-])nc3O2)cc1 [IIB6, (R)—N-methyl-4-{(2-methyl-6-nitro-2,3-dihydroimidazo[2,1-b]oxazol-2-yl)methoxy}-N-(p-trifluoromethylphenyl)benzenesulfonamide] | 1 µg/mL (≈ 1.95 µM) | 1 µg/mL (≈ 1.95 µM)
C[C@]1(COc2ccc(S(=O)(=O)N3CCN(c4ccccc4)CC3)cc2)Cn2cc([N+](=O)[O-])nc2O1 [IIC1, (R)-2-{4-(4-phenylpiperazin-1-yl)sulfonylphenoxymethyl}-2,3-dihydro-2-methyl-6-nitroimidazo[2,1-b]oxazole] | 1 µg/mL (≈ 2 µM) | 1 µg/mL (≈ 2 µM)
C[C@]1(COc2ccc(S(=O)(=O)N3CCN(c4ccc(F)cc4)CC3)cc2)Cn2cc([N+](=O)[O-])nc2O1 [IIC2, (R)-2-{4-[4-(4-fluorophenyl)piperazin-1-yl]sulfonylphenoxymethyl}-2,3-dihydro-2-methyl-6-nitroimidazo[2,1-b]oxazole] | 2 µg/mL (≈ 3.86 µM) | 2 µg/mL (≈ 3.86 µM)
C[C@]1(COc2ccc(S(=O)(=O)N3CCN(c4cccc(Cl)c4)CC3)cc2)Cn2cc([N+](=O)[O-])nc2O1 [IIC3, (R)-2-{4-[4-(3-chlorophenyl)piperazin-1-yl]sulfonylphenoxymethyl}-2,3-dihydro-2-methyl-6-nitroimidazo[2,1-b]oxazole] | 8 µg/mL (≈ 15 µM) | 8 µg/mL (≈ 15 µM)
C[C@]1(COc2ccc(S(=O)(=O)N3CCN(c4ccc(OC(F)(F)F)cc4)CC3)cc2)Cn2cc([N+](=O)[O-])nc2O1 [IIC4, (R)-2-{4-[4-(4-trifluoromethoxyphenyl)piperazin-1-yl]sulfonylphenoxymethyl}-2,3-dihydro-2-methyl-6-nitroimidazo[2,1-b]oxazole] | 2 µg/mL (≈ 3.43 µM) | 2 µg/mL (≈ 3.43 µM)
CCOC(=O)N1CCN(S(=O)(=O)c2ccc(OC[C@@]3(C)Cn4cc([N+](=O)[O-])nc4O3)cc2)CC1 [IIC5, (R)-ethyl-{4-[4-(2-methyl-6-nitro-2,3-dihydroimidazo[2,1-b]oxazol-2yl)methoxyphenyl]sulfonyl}piperazine-1-carboxylate] | 2 µg/mL (≈ 4.04 µM) | 2 µg/mL (≈ 4.04 µM)
C[C@]1(COc2ccc(S(=O)(=O)N3CCN(C(=O)c4ccccc4)CC3)cc2)Cn2cc([N+](=O)[O-])nc2O1 [IIC6, (R)-{4-[4-(2-methyl-6-nitro-2,3-dihydroimidazo[2,1-b]oxazol-2yl)methoxyphenyl]sulfonyl}piperazine-1-yl(phenyl)methanone] | 2 µg/mL (≈ 3.79 µM) | 2 µg/mL (≈ 3.79 µM)
C[C@]1(COc2ccc(S(=O)(=O)N3CCCCC3)cc2)Cn2cc([N+](=O)[O-])nc2O1 [IIC7, (R)-2-{4-(piperidin-1-ylsulfonyl)phenoxymethyl}-2,3-dihydro-2-methyl-6-nitroimidazo[2,1-b]oxazole] | 1 µg/mL (≈ 2.37 µM) | 1 µg/mL (≈ 2.37 µM)
C[C@]1(COc2ccc(S(=O)(=O)N3CCC(c4ccccc4)CC3)cc2)Cn2cc([N+](=O)[O-])nc2O1 [IIC8, (R)-2-{4-[(4-phenylpiperidin-1-yl)sulfonyl]phenoxymethyl}-2,3-dihydro-2-methyl-6-nitroimidazo[2,1-b]oxazole] | 0.5 µg/mL (≈ 1 µM) | 0.5 µg/mL (≈ 1 µM)
C[C@]1(COc2ccc(S(=O)(=O)N3CCCC3)cc2)Cn2cc([N+](=O)[O-])nc2O1 [IIC9, (R)-2-{4-(pyrrolidin-1-ylsulfonyl)phenoxymethyl}-2,3-dihydro-2-methyl-6-nitroimidazo[2,1-b]oxazole] | 1 µg/mL (≈ 2.45 µM) | 1 µg/mL (≈ 2.45 µM)
C[C@]1(COc2ccc(S(=O)(=O)N3CCOCC3)cc2)Cn2cc([N+](=O)[O-])nc2O1 [IIC10, (R)-2-{4-(morpholinsulfonyl)phenoxymethyl}-2,3-dihydro-2-methyl-6-nitroimidazo[2,1-b]oxazole] | 0.5 µg/mL (≈ 1.18 µM) | 0.5 µg/mL (≈ 1.18 µM)
